Key:
Assay type in all cases: cell-based, human
HeLa cells [1] = experiment: MTT cytotoxicity assay, HeLa; details: for IC50: MTT; for Selectivity index (SI): IC50 healthy cells (MRC-5)/IC50 tumor cells; for Cytotoxicity range: concentration range 1–100 μM
Procedure: (§1) To examine and compare the antiproliferative activities of four enones, the cytotoxicity of the compounds was assessed by the 3-(4,5-dimethylthiazol-2-yl)-2,5-diphenyltetrazolium bromide (MTT) assay[9] in, colon cancer cells (HCT-116), cervical cancer cell line (HeLa) and human fibroblast lung cell line (MRC-5) that was used as a healthy control cell line. After trypsinization, seeded (5 × 10^3 cells per well in 96-well plates) cells were treated with different concentrations of the investigated enones (1, 3, 10, 30, and 100 μM) during 48 and 72 h period incubation period +37 °C and 5–6.5% CO2. After the incubation period, the medium was removed and MTT solution (5 mg ml^−1) was added to the wells.
(§2) After a 3 hour incubation with the MTT solution, the resulting formazan crystals were dissolved in DMSO (67-68-5, Merck). Absorbance was subsequently measured at 595 nm using a microplate reader (Zenith 3100, Anthos Labtech Instruments). The percentage of cytotoxic cells was determined using the formula: cytotoxicity (%) = (1 − (exp. group (ABS))/(control group (ABS)) × 100). IC50 values were calculated using GraphPad Prism 10 software. The selectivity index (SI) was determined using the formula: SI?IC50 value for healthy cells/IC50 value for tumor cells.[9]

HCT-116 cells [2] = experiment: MTT cytotoxicity assay, HCT-116; details: for IC50: MTT; for percentage of cytotoxic HCT-116 cells compared to HeLa cells (fold) / percentage of cytotoxic HCT-116 cells compared to control MRC-5 cells (fold): 48 h, over the applied doses; for Cytotoxicity range: concentration range 1–100 μM; for Selectivity index (SI): IC50 healthy cells (MRC-5)/IC50 tumor cells
Procedure: as §1, §2

MRC-5 cells = experiment: MTT cytotoxicity assay, MRC-5 healthy control cells
Procedure: as §1, §2

HeLa cells [3] = experiment: Annexin V-FITC/7-AAD apoptosis flow cytometry, HeLa; details: IC50 concentration, 48 h
Procedure: (§3) The type of cell death was assessed using flow cytometry using FITC Annexin V Apoptosis Detection Kit with 7-AAD (640922, Bio legend).[8] […] After treatment, cells were harvested, washed with PBS (resuspended in 100 μl of ice-cold 1X binding buffer), stained (20 μl of 7-AAD and 10 μl of Annexin V-FITC), and incubated in the dark for 15 min at +4 °C. After incubation, 400 μl of binding buffer was added and the samples were analyzed using flow cytometer Cytomics FC500 (Beckman Coulter, USA). Data analysis was performed using FlowJo Software and presented with histogram and dot plots.

HCT-116 cells [4] = experiment: Annexin V-FITC/7-AAD apoptosis flow cytometry, HCT-116; details: IC50 concentration, 48 h
Procedure: as §3

[5] = system: Bax and Bcl-2 in HCT-116 cells; experiment: Flow cytometric analysis of Bax and Bcl-2 expression, HCT-116; details: HCT-116, IC50 concentration, 48 h, from MFI
Procedure: (§4) Cells were washed with PBS, fixed, permeabilized using Fixation and Permeabilization Kit (eBioscience), and stained separately for Bcl-2, Bax, and cleaved-caspase-3.[8,9] Permeabilized cells were incubated with primary antibodies: mouse anti-human-Bcl-2 (DC21, sc-783, Santa Cruz Biotech. Inc.), mouse anti-human Bax (N20, sc-493, Santa Cruz Biotech. Inc.), and anti-cleaved caspase-3 (Cell signaling Technology 9661). Following antibody incubation, cells were washed and incubated with secondary Alexa 488-conjugated antibodies (ab185015, Abcam, United Kingdom) for 30 minutes. After an additional wash with PBS, flow cytometry analysis was performed.
(§5) Data were analyzed using FlowJo Software. The expression of Bcl-2 and Bax proteins was quantified as mean fluorescence intensity (MFI). The results were presented with bar graphs. Bax/Bcl-2 index was calculated using the formula […]. The percentage of cells expressing active caspase-3 (MFI) was presented in histograms.

[6] = system: Bax and Bcl-2 in HeLa cells; experiment: Flow cytometric analysis of Bax and Bcl-2 expression, HeLa; details: IC50 concentration, 48 h; for Bax/Bcl-2 ratio: from MFI
Procedure: as §4, §5

[7] = system: mitochondrial membrane potential (ΔΨm) in HCT-116 cells; experiment: Mitochondrial membrane potential (ΔΨm) JC-10 analysis, HCT-116; details: IC50 concentration, 48 h
Procedure: (§6) Changes in the ΔΨm caused by 48 hours of enones treatment, were assessed using JC-10 dye.[10]. (Enzo Life Sciences, Farmingdale, NY, USA).
(§7) In healthy cells, JC-10 dye accumulates in the mitochondria as red fluorescent aggregates. However, upon cell damage, changes in ΔΨm occur and result in dislocation of JC-10 from the mitochondria to the cytosol and the monomerization of aggregates, shifting fluorescence from red to green. Cells were cultured in 24-well plate (3 × 10^4 cells per well) overnight in the incubator (5% CO2, 37 °C). […] Following treatment, cells were washed with warm 1xPBS and incubated with JC-10 dye (2.5 μM in warm PBS) at 5% CO2, 37 °C for 20 minutes. Cells were then washed with 1xPBS and observed using an Olympus IX50 inverted fluorescence microscope. Images were captured and analyzed using ImageJ software. The ratio of fluorescence emissions at 525 and 590 nm was used for quantification analysis.

[8] = system: mitochondrial membrane potential (ΔΨm) in HeLa cells; experiment: Mitochondrial membrane potential (ΔΨm) JC-10 analysis, HeLa; details: IC50 concentration, 48 h
Procedure: as §6, §7

[9] = system: cytochrome c in HCT-116 cells; experiment: Cytochrome c localization by immunofluorescence, HCT-116; details: IC50 concentration, 48 h
Procedure: After 48 hours of treatment, immunofluorescence analysis of cytochrome c distribution and expression in treated cells was performed using glass coverslips.[10] Following the treatment, cells were washed with PBS, fixed in 4% formaldehyde for 20 min, and permeabilized with 0.2% Tween-20. Blocking was performed using a buffer containing 0.1% Tween-20 and 10% FBS for 30 min. The cells were then incubated for 1 hour at room temperature with a monoclonal mouse anti-human cytochrome c antibody (1:100, G7421, Promega, USA,)
Subsequently, the cells were incubated for 30 minutes with a goat anti-mouse FITC (1:200, diluted in blocking buffer), washed, and images were acquired using an inverted fluorescence microscope (Olympus IX50). Image analysis was performed using ImageJ software.

HCT-116 cells [10] = experiment: Cell cycle analysis (PI, flow cytometry), HCT-116; details: IC50 concentration, 48 h; control 27.4%
Procedure: (§8) After treatment of HCT-116 and HeLa cells with enones, cells were harvested, washed with PBS, and fixed in 70% ice-cold ethanol at +4 °C overnight.[10] The cells were then pelleted, resuspended in 1 ml PBS containing RNAse A (12091021, Sigma Aldrich), and incubated for 30 min at 37 °C. A staining solution containing propidium iodide (1 mg PI per ml PBS) (B7758, Biotrend) was added to cells, followed by 15 min incubation in the dark. Cells were analyzed by flow cytometer Cytomics FC500. DNA content was determined using Flowing Software and cell cycle distribution was presented by graph (histograms).

HeLa cells [11] = experiment: Cell cycle analysis (PI, flow cytometry), HeLa; details: IC50 concentration, 48 h; control 29.9%
Procedure: as §8

[12] = system: active caspase-3 in HCT-116 cells; experiment: Flow cytometric analysis of active caspase-3, HCT-116; details: IC50 concentration, 48 h, vs control
Procedure: as §4, §5

[13] = system: active caspase-3 in HeLa cells; experiment: Flow cytometric analysis of active caspase-3, HeLa; details: IC50 concentration, 48 h, vs control
Procedure: as §4, §5

[14] = Homo sapiens, MRC5, MRC-5, 48 h
[15] = Homo sapiens, MRC5, MRC-5, 72 h

Structure (SMILES)	total percentage of apoptotic HeLa cells (HeLa cells [3])	Selectivity index (SI) (HeLa cells [1]; 48 h)	Cytotoxicity range (HeLa cells [1]; 48 h)	Cytotoxicity range (HeLa cells [1]; 72 h)	IC50 (HeLa cells [1]; Homo sapiens, 48 h)	IC50 (HeLa cells [1]; Homo sapiens, 72 h)	Cytotoxicity range (HCT-116 cells [2]; HCT-116, 48 h)	Selectivity index (SI) (HCT-116 cells [2]; HCT-116, 48 h)	Cytotoxicity range (HCT-116 cells [2]; HCT-116, 72 h)	Selectivity index (SI) (HCT-116 cells [2]; HCT-116, 72 h)	IC50 (HCT-116 cells [2]; Homo sapiens, HCT-116, 48 h)	IC50 (HCT-116 cells [2]; Homo sapiens, HCT-116, 72 h)	IC50 (MRC-5 cells; [14])	IC50 (MRC-5 cells; [15])	increase of percentage of apoptotic HCT-116 cells compared to control HCT-116 cells (HCT-116 cells [4])	percentage of total apoptotic HCT-116 cells (sum of early and late) (HCT-116 cells [4])	Bax/Bcl-2 ratio [5]	Bax/Bcl-2 ratio [6]	JC10-green/JC10 red ratio in HCT-116 cells [7]	JC10-green/JC10 red ratio in HeLa cells [8]	further results
N.N.[Cl][Pt][Cl] [CP, Cisplatin, reference compound]	42.38%																				IC50 (HeLa cells [1]; 48 h): 16.5 µM; IC50 (HeLa cells [1]; 72 h): 3.62 ± 0.09 µM; IC50 (HCT-116 cells [2]; HCT-116, 48 h): 13.6 µM; IC50 (HCT-116 cells [2]; HCT-116, 72 h): 7.08 ± 0.13 µM; IC50 (MRC-5 cells; MRC-5, 48 h): > 30 µM; IC50 (MRC-5 cells; MRC-5, 72 h): > 85 µM
COc1cc(/C=C/C(=O)CC(C)C)ccc1OCC(=O)O [E3, (E)-2-(2-Methoxy-4-(5-methyl-3-oxohex-1-en-1-yl)phenoxy)acetic acid]	35.63%	5.50	5.47–33.95%	40.39–59.92%	18.2 ± 1.33 µM	3.96 ± 0.1 µM	11.23–75.08%	14.71	66.85–70.44%	42.68	6.8 ± 1.01 µM	1.64 ± 0.01 µM	> 100 µM	> 70 µM	7.4 fold	51.68%	1.6	0.9	1.4	1.3	Selectivity index (SI) (HeLa cells [1]; 72 h): 17.67; percentage of cytotoxic HCT-116 cells compared to HeLa cells (fold) (HCT-116 cells [2]): 2.05–2.1 fold; percentage of cytotoxic HCT-116 cells compared to control MRC-5 cells (fold) (HCT-116 cells [2]): 4.4–6.9 fold; RELATIVE RATIO OF CYTOSOL CYTC TO MITOCHONDRIAL CYT C IN HCT-116 CELLS [9]: 1.1; % OF HCT-116 CELLS, G2/M (HCT-116 cells [10]): 54.1%; % OF HELA CELLS, G2/M (HeLa cells [11]): 58.3%
COc1cc(/C=C/C(=O)C2CC2)ccc1OCC(=O)O [E4, (E)-2-(4-(3-Cyclopropyl-3-oxoprop-1-en-1-yl)-2-methoxyphenoxy)acetic acid]	33.18%	4.97	12.12–60.72%	42.39–59.81%	20.1 ± 1.19 µM	4.12 ± 0.08 µM	39.29–68.45%	10.62	65.85–71.44%	40.00	9.42 ± 1.78 µM	2 ± 0.01 µM	> 100 µM	> 80 µM	6.7 fold	47.23%	1.4	1	1.4	1.2	Selectivity index (SI) (HeLa cells [1]; 72 h): 19.41; MFI of active caspase-3 in HCT-116 (fold change) [12]: 1.9 fold change; MFI of active caspase-3 in HeLa (fold change) [13]: 1.6 fold change; RELATIVE RATIO OF CYTOSOL CYTC TO MITOCHONDRIAL CYT C IN HCT-116 CELLS [9]: 0.9; % OF HCT-116 CELLS, G2/M (HCT-116 cells [10]): 41.4%; % OF HELA CELLS, G2/M (HeLa cells [11]): 61.9%
COc1cc(/C=C/C(C)=O)ccc1OCC(=O)O [E1, (E)-2-(2-Methoxy-4-(3-oxobut-1-en-1-yl)phenoxy)acetic acid]	43.03%	8.67	3.12–39.24%	39.35–61%	17.3 ± 1.19 µM	3.59 ± 0.03 µM	11.23–72.91%	24.75	65.85–73.44%	58.03	6.06 ± 0.96 µM	1.12 ± 0.01 µM	> 150 µM	> 65 µM	8.5 fold	59.5%	1.8	1.1	1.6	1.4	percentage of cytotoxic HCT-116 cells compared to HeLa cells (fold) (HCT-116 cells [2]): 1.8–3.6 fold; percentage of cytotoxic HCT-116 cells compared to control MRC-5 cells (fold) (HCT-116 cells [2]): 4.1–4.4 fold; Bcl-2 protein expression vs control cells ([6]; p < 0.05): decreased; MFI of active caspase-3 in HCT-116 (fold change) [12]: 2.1 fold change; MFI of active caspase-3 in HeLa (fold change) [13]: 1.9 fold change; RELATIVE RATIO OF CYTOSOL CYTC TO MITOCHONDRIAL CYT C IN HCT-116 CELLS [9]: 1.2; % OF HCT-116 CELLS, G2/M (HCT-116 cells [10]): 50.4%; % OF HELA CELLS, G2/M (HeLa cells [11]): 66.9%

Reference: publication PMC11505670, “Four newly synthesized enones induce mitochondrial-mediated apoptosis and G2/M cell cycle arrest in colorectal and cervical cancer cells” (RSC Advances, 2024)
